Test results as given in patent US10350206B2, “Benzyl substituted indazoles as BUB1 inhibitors” (Bayer Pharma Aktiengesellschaft, priority 2014, dated 2019).
Where a name gives a salt, the structure may show the parent alone. Read-outs that look alike come from different tables or passages of the source.

Tests used:
[1] = molecular target: T1, catalytic domain of human Bub1 (amino acids 704-1085) (Homo sapiens, UniProt O43683); experiment: Equilibrium probe competition assay (TR-FRET kinase binding assay); conditions: read-out: Assay 5 IC50
T1 construct: catalytic domain of human Bub1 (amino acids 704-1085); His6 (N); made in house; host or cells: Hi5 insect cells
Protocol: The half-life of prodrugs (Table 3) poses a challenge for the verification of their biological activity. The Bub1 enzymatic activity assay (as per Biological Assay 1.0 infra) requires a minimum reaction time of 60 minutes in order to be able to assess the inhibitory activity of the compounds. During this time typically 20% to 60% of the prodrugs have been already converted to their corresponding drugs at the pH of 7.5 at which the assay is performed. Ideally one would perform the biological assay at a pH at which the prodrug is stable (e.g. pH 4). […] Alternatively, an assay requiring shorter incubation times would better estimate the binding affinities of the prodrugs. […] Extrapolating the stability data from Tables 3 and 4, one would expect at this time point most of the compound present in the test solution to be the prodrug.
FIGS. 1 and 2 combine the results from Biological Assay 5 with those from Biological Assay 6. The binding affinities over time of drug and prodrug pairs are shown as pIC50 together with the prodrug stability, and the pIC50 to be expected if only the drug present in the sample was responsible for the activity in the assay. Extrapolating the pIC50 from these graphs to time 0 (at which 100% of prodrug is present in the sample), the actual affinity of the drug and prodrug can be inferred. Secondly, looking at the differences between expected and real pIC50 an estimate can be made about the contribution of the prodrug to the observed activity.
Biological Assay 5.0: Equilibrium Probe Competition Assay:
Bub1 binding affinity of compounds described in the present invention were quantified using a time-resolved fluorescence energy transfer (TR-FRET) kinase binding assay which measures displacement of the synthetic fluorescent probe 5-[({2-[2-({2-[1-(4-ethoxy-2,6-difluorobenzyl)-1H-indazol-3-yl]-4-(pyridin-4-ylamino)pyrimidin-5-yl}oxy)ethoxy]ethyl}carbamothioyl)amino]-2-(6-hydroxy-3-oxo-3H-xanthen-9-yl)benzoic acid (6-5-1) by the (recombinant) catalytic domain of human Bub1 (amino acids 704-1085). The enzyme was expressed in Hi5 insect cells with N-terminal 6×His/AviTag® sequences, purified by affinity- (Ni-NTA) and size exclusion chromatography and site-specific biotinylated ex-vivo using a commercially available kit (Avidity).
In a typical assay 11 different concentrations of each compound (0.1 nM, 0.33 nM, 1.1 nM, 3.8 nM, 13 nM, 44 nM, 0.15 μM, 0.51 μM, 1.7 μM, 5.9 μM and 20 μM) were tested in duplicate within the same microtiter plate. To this end, 100-fold concentrated compound solutions (in DMSO) were made by serial dilution (1:3.4) of freshly prepared 2 mM stocks in a clear low volume 384-well source microtiter plate (Greiner Bio-One, Frickenhausen, Germany), from which 50 nl of compounds were transferred into a black low volume test microtiter plate from the same supplier. Subsequently 2 μL of a solution containing biotinylated Bub1 (the final concentration of Bub1 was adjusted depending on the activity of the enzyme lot in order to be within the linear dynamic range of the assay: typically ˜[…] were used) and 1 nM Streptavidin Terbium Cryptate (Cisbio, No. 610SATLB) in aqueous assay buffer [50 mM Tris/HCl pH 7.5, 200 mM potassium chloride (KCl), 1.0 mM dithiothreitol (DTT), 0.1 mM sodium ortho-vanadate, 1% (v/v) glycerol, 0.01% (w/v) bovine serum albumine (BSA), 0.005% (v/v) Triton X-100 (Sigma), were added to the compounds in the test plate and the mixture was incubated for 15 min at 22° C. to allow pre-equilibration of the putative enzyme-inhibitor complexes before the start of the probe competition reaction, which was initiated by the addition of 3 μL 1.67-fold concentrated solution (in assay buffer) of 6-5-1 (final concentration: 1.5 nM). The resulting mixture (5 μL final volume) was incubated at 22° C. during 0, 15, 30, 60, 120, 240 and 1440 min. […]

[2] = Stability in buffer at various pH values (HPLC detection); format: physicochemical; conditions: 37° C., remaining prodrug; for Stability pH 4: % Test Compound after 4 h [F(t = 4 h) × 100/F(t = 0 h)]: pH 4 buffer; for Stability pH 7.4: % Test Compound after 4 h [F(t = 4 h) × 100/F(t = 0 h)]: pH 7.4 buffer
Protocol: Stability in Buffer at Various pH Values (HPLC Detection)
0.3 mg of the test compound was solved in 0.1 ml dimethylsulfoxide and 0.4 ml acetonitrile. For complete dissolution the HPLC vial with the sample solution was sonified for about 20 seconds. Then 1.0 ml of the respective buffer solution was added and the sample was again treated in the ultrasonic bath.
• pH 4.0: Fluka buffer, Order No. 33643 (11.76 g citric acid, 2.57 g sodium chloride and 2.72 g sodium hydroxide) • pH 7.4: 90 g of sodium chloride, 13.61 g of potassium dihydrogen phosphate and 83.35 g of 1 M sodium hydroxide solution were made up to 1 L with Millipore water and then diluted 1:10. • 10 μl portions of the sample solution were analysed by HPLC at different times (0 h, 1 h, 2h, 4h and 24h) at 37° C. The peak areas in percentage were used for quantification. HPLC Method: • Agilent 1100 with DAD (G1315B), binary pump (G1312A), autosampler (G1329A), column oven (G1316A), thermostat (G1330B); column: Kromasil 100 C18, 250 mm×4 mm, 5 μm; column temperature: 37° C.; eluent A: water+5 ml of perchloric acid/litre, eluent B: acetonitrile. Gradient: • 0 min 98% A, 2% B→0-3.0 min 85% A, 15% B→3.0-8.0 min 50% A, 50% B→8.0-16.0 min 50% A, 50% B→16.0-20.0 min 10% A, 90% B→20.0-21.0 10% A, 90% B→21.0-24.0 min 98% A, 2% B→24.0-25.0 min 98% A, 2% B; flow rate: 1.5 ml/min; UV detection: 210 nm.
The ratios of the peak area (F) at different times in relation to the peak area at the starting point are shown in Table 3 for representative examples: […]

Compound	IC50 ([1]; Time 15 min)	IC50 ([1]; Time 30 min)	IC50 ([1]; Time 60 min)	IC50 ([1]; Time 90 min)	IC50 ([1]; Time 120 min)	IC50 ([1]; Time 240 min)	IC50 ([1]; Time 1440 min)	Stability pH 4: % Test Compound after 4 h [F(t = 4 h) × 100/F(t = 0 h)] [2]	Stability pH 7.4: % Test Compound after 4 h [F(t = 4 h) × 100/F(t = 0 h)] [2]
COc1cnc(-c2nn(Cc3c(F)cc(OCCOC(=O)[C@H](C)NC(=O)[C@@H](N)CCCCN)cc3F)c3ccccc23)nc1Nc1ccnc(C)c1 [Example 4-1-1, 2-{3,5-difluoro-4-[(3-{5-methoxy-4-[(2-methylpyridin-4-yl)amino]pyrimidin-2-yl}-1 H-indazol-1-yl)methyl]phenoxy}ethyl L-lysyl-L-alaninate, salt with trifluoroacetic acid]	17 nM	10 nM	12 nM	10 nM	7.2 nM	5.8 nM	2.7 nM	100%	4%
COc1cnccc1Nc1nc(-c2nn(Cc3c(F)cc(OCCOC(=O)[C@H](C)NC(=O)[C@@H](N)CCCCN)cc3F)c3ccccc23)ncc1OC [Example 4-1-2, 2-{3,5-difluoro-4-[(3-{5-methoxy-4-[(3-methoxypyridin-4-yl)amino]pyrimidin-2-yl}-1H-indazol-1-yl)methyl]phenoxy}ethyl L-lysyl-L-alaninate, salt with trifluoroacetic acid]	2.7 nM	2.3 nM	2.2 nM	1.3 nM	1 nM	0.69 nM	0.36 nM	100%	5%
COc1cnc(-c2nn(Cc3c(F)cc(OCCOC(=O)[C@H](C)NC(=O)[C@H](N)CCCCN)cc3F)c3ccccc23)nc1Nc1ccnc(F)c1 [Example 4-1-3, 2-{3,5-difluoro-4-[(3-{4-[(2-fluoropyridin-4-yl)amino]-5-methoxypyrimidin-2-yl}-1H-indazol-1-yl)methyl]phenoxy}ethyl D-lysyl-L-alaninate, salt with trifluoroacetic acid]								100%	0%
COc1cnc(-c2nn(Cc3c(F)cc(OCCOC(=O)[C@H](C)NC(=O)[C@@H](N)CCCCN)cc3F)c3ccccc23)nc1Nc1ccnc(F)c1 [Example 4-1-4, 2-{3,5-difluoro-4-[(3-{4-[(2-fluoropyridin-4-yl)amino]-5-methoxypyrimidin-2-yl}-1H-indazol-1-yl)methyl]phenoxy}ethyl L-lysyl-L-alaninate, salt with trifluoroacetic acid]								100%	9%
COc1cnc(-c2nn(Cc3c(F)cc(OCCOC(=O)[C@H](C)NC(=O)[C@@H](N)CCCCN)cc3F)c3ccccc23)nc1Nc1ccncc1 [Example 6-2-1, 2-[3,5-difluoro-4-({3-[5-methoxy-4-(pyridin-4-ylamino)pyrimidin-2-yl]-1 H-indazol-1-yl}methyl)phenoxy]ethyl L-lysyl-L-alaninate, salt with trifluoroacetic acid, reference compound]								100%	3%
